Read-outs that look alike come from different tables or passages of the source.
Tests used:
[1] = tested on: MES SA (uterine sarcoma cell line); experiment: In vitro cytotoxicity assay (CellTiter-Glo, 72 hours), MES SA; type: cell-based; conditions: Homo sapiens, MES-SA, 72 h
[2] = tested on: MES SA DX (MES SA cell line with marked multi-drug resistance); experiment: In vitro cytotoxicity assay (CellTiter-Glo, 72 hours), MES SA DX; conditions: for IC50: Homo sapiens, MES-SA, 72 h
[3] = tested on: HEK 293T (human embryonic kidney cancer cell line); experiment: In vitro cytotoxicity assay (CellTiter-Glo, 72 hours), HEK 293T; type: cell-based; conditions: Homo sapiens, HEK-293T, 72 h
[4] = read-out: MES SA, IC50 Value in nM
[5] = read-out: MES SA DX, IC50 Value in nM
[6] = read-out: HEK 293T, IC50 Value in nM

SMILES: CC(=O)O[C@H](C[C@H](C(C)C)N(C)C(=O)[C@@H](NC(=O)[C@H]1CCCCN1C)C(C)C)c1nc(C(=O)N[C@@H](Cc2ccccc2)CC2C(=O)OC(C)(C)OC2=O)cs1 [Tb114, 1-(4-{[1-(2,2-Dimethyl-4,6-dioxo-1,3-dioxan-5-yl)-3-phenylpropan-2-yl]carbamoyl}-1,3-thiazol-2-yl)-4-methyl-3-[methyl(3-methyl-2-{[(1-methylpiperidin-2-yl)carbonyl]amino}butanoyl)amino]-pentyl acetate]
- IC50 [1, 4]: 1.23 nM
- IC50 [2, 5]: > 400 nM
- IC50 [3, 6]: 0.524 nM

SMILES: CCCCN1CCCC[C@@H]1C(=O)N[C@H](C(=O)N(C)[C@H](C[C@@H](OC(C)=O)c1nc(C(=O)N[C@@H](Cc2ccccc2)CC(CO)C(=O)OC)cs1)C(C)C)[C@@H](C)CC (stereo partly drawn) [Tb56, Methyl (4R)-4-[({2-[(1R,3R)-1-acetoxy-3-{[(2S,3S)-2-({[(2R)-1-butylpiperidin-2-yl]carbonyl}amino)-3-methylpentanoyl](methyl)amino}-4-methylpentyl]-1,3-thiazol-4-yl}carbonyl)amino]-2-(hydroxy-methyl)-5-phenylpentanoate]
- IC50 [1, 4]: > 1000 nM
- IC50 [2, 5]: > 1000 nM
- IC50 [3, 6]: > 1000 nM

SMILES: COC(=O)C12CC(NC(=O)c3csc([C@@H](C[C@H](C(C)C)N(C)C(=O)[C@@H](NC(=O)[C@H]4CCCCN4C)C4CC4)OC(C)=O)n3)(C1)C2 [Tb100, Methyl 3-{[(2-{1-acetoxy-3-[(cyclopropyl{[(1-methylpiperidin-2-yl)carbonyl]amino}acetyl)(methyl)-amino]-4-methylpentyl}-1,3-thiazol-4-yl)carbonyl]amino}bicyclo[1.1.1]pentane-1-carboxylate]
- IC50 [1, 4]: 15.2 nM
- IC50 [2, 5]: > 1000 nM
- IC50 [3, 6]: 16.5 nM

SMILES: CC(=O)O[C@H](C[C@H](C(C)C)N(C)C(=O)[C@H](C)NC(=O)[C@H]1CCCCN1C)c1nc(C(=O)N[C@@H](Cc2ccccc2)C[C@H](C)C(=O)O)cs1 [Tb91, (2S,4R)-4-[({2-[(1R,3R)-1-Acetoxy-4-methyl-3-{methyl[(2S)-2-({[(2R)-1-methylpiperidin-2-yl]car-bonyl}amino)propanoyl]amino}pentyl]-1,3-thiazol-4-yl}carbonyl)amino]-2-methyl-5-phenylpentanoic acid]
- IC50 [1, 4]: > 1000 nM
- IC50 [2, 5]: > 1000 nM
- IC50 [3, 6]: > 1000 nM

SMILES: COC(=O)[C@@H](C)C[C@H](Cc1ccccc1)NC(=O)c1nc([C@@H](C[C@H](C(C)C)N(C)C(=O)[C@@H](NC(=O)[C@H]2CCCCN2)C(C)C)OC(C)=O)sc1C [Tb69, Methyl (2S,4R)-4-[({2-[(1R,3R)-1-acetoxy-4-methyl-3-{methyl[(2S)-3-methyl-2-{[(2R)-piperidin-2-ylcarbonyl]amino}butanoyl]amino}pentyl]-5-methyl-1,3-thiazol-4-yl}carbonyl)amino]-2-methyl-5-phenylpentanoate]
- IC50 [1, 4]: 30.8 nM
- IC50 [2, 5]: > 1000 nM
- IC50 [3, 6]: > 1000 nM

SMILES: COC(=O)[C@@H](CC(Cc1ccccc1)NC(=O)c1csc([C@@H](CC(C(C)C)N(C)C(=O)[C@@H](NC(=O)[C@H]2CCCCN2C)C(C)C)OC(C)=O)n1)NC(=O)OCc1ccccc1 (stereo in doubt) [Tb115, Methyl(2R,4R)-4-[({2-[(1R,3S)-1-acetoxy-4-methyl-3-{methyl[(2S)-3-methyl-2-{[(1-methylpiperidin-2-yl)carbonyl]amino}butanoyl]amino}pentyl]-1,3-thiazol-4-yl}carbonyl)amino]-2-{[(benzyloxy)carbonyl]amino}-5-phenylpentanoate]
- IC50 ([1]; read-out: MES SA, IC50): 0.02 nM
- IC50 [1, 4]: 0.02 nM
- cytotoxicities against the marked drug resistant cancer cell line MES SA DX (in words) [2]: relatively potent (low nanomolar)
- IC50 ([2]; read-out: MES SA DX, IC50): 13.8 nM
- IC50 [2, 5]: 13.8 nM
- IC50 ([3]; read-out: HEK 293T, IC50): 0.01 nM
- IC50 [3, 6]: 0.01 nM

SMILES: COC(=O)[C@@H](CO)C[C@H](Cc1ccccc1)NC(=O)c1csc([C@@H](C[C@H](C(C)C)N(C)C(=O)[C@@H](NC(=O)[C@H]2CCCCN2C)C(C)C)OC(C)=O)n1 [Tb119, Methyl (2R,4R)-4-{2-[(1R,3R)-1-acetoxy-3-{(S)—N,3-dimethyl-2-[(R)-1-methylpiperidine-2-carboxamido]butanamido}-4-methylpentyl]thiazole-4-carboxamido}-2-(hydroxymethyl)-5-phenylpentanoate]
- IC50 ([1]; read-out: MES SA, IC50): 0.093 nM
- IC50 [1, 4]: 0.093 nM
- IC50 ([2]; read-out: MES SA DX, IC50): > 14 nM
- IC50 [2, 5]: > 14 nM
- IC50 ([3]; read-out: HEK 293T, IC50): 0.041 nM
- IC50 [3, 6]: 0.041 nM

SMILES: COC(=O)C(CC(Cc1ccccc1)NC(=O)c1csc([C@@H](CC(C(C)C)N(C)C(=O)[C@@H](NC(=O)[C@H]2CCCCN2C)C(C)C)OC(C)=O)n1)NC(=O)OCc1ccccc1 (stereo in doubt) [Tb116, Methyl(2R,4R)-4-[({2-[(1R,3S)-1-acetoxy-4-methyl-3-{methyl[(2S)-3-methyl-2-{[(1-methylpiperidin-2-yl)carbonyl]amino}butanoyl]amino}pentyl]-1,3-thiazol-4-yl}carbonyl)amino]-2-{[(benzyloxy)carbonyl]amino}-5-phenylpentanoate]
- IC50 ([1]; read-out: MES SA, IC50): 0.007 nM
- IC50 [1, 4]: 0.007 nM
- cytotoxicities against the marked drug resistant cancer cell line MES SA DX (in words) [2]: relatively potent (low nanomolar)
- IC50 ([2]; read-out: MES SA DX, IC50): 6 nM
- IC50 [2, 5]: 6 nM
- IC50 ([3]; read-out: HEK 293T, IC50): 0.003 nM
- IC50 [3, 6]: 0.003 nM

SMILES: CCOC(=O)[C@@H](C)CC(Cc1ccccc1)NC(=O)c1nc([C@@H](C[C@H](C(C)C)N(C)C(=O)[C@@H](NC(=O)[C@H]2CCCCN2C)C(C)C)OC(C)=O)sc1CCOCc1ccccc1 (stereo in doubt) [Tb110, Ethyl (2S,4S)-4-[({2-[(1R,3R)-1-acetoxy-4-methyl-3-{methyl[(2S)-3-methyl-2-{[(1-methylpiperidin-2-yl)carbonyl]amino}butanoyl]amino}pentyl]-5-[2-(benzyloxy)ethyl]-1,3-thiazol-4-yl}carbonyl)-amino]-2-methyl-5-phenylpentanoate]
- IC50 [1, 4]: 3.09 nM
- IC50 [2, 5]: > 400 nM
- IC50 [3, 6]: 1.87 nM

SMILES: COC(=O)[C@H](C[C@H](Cc1ccccc1)NC(=O)c1csc([C@@H](C[C@H](C(C)C)N(C)C(=O)[C@@H](NC(=O)[C@H]2CCCCN2C)C(C)C)OC(C)=O)n1)N(C)C [Tb117, Methyl (2S)-4-{[(2-{1-acetoxy-4-methyl-3-[methyl(3-methyl-2-{[(1-methylpiperidin-2-yl)carbonyl]-amino}butanoyl)amino]pentyl}-1,3-thiazol-4-yl)carbonyl]amino}-2-(dimethylamino)-5-phenylpentanoate]
- IC50 ([1]; read-out: MES SA, IC50): 0.099 nM
- IC50 [1, 4]: 0.099 nM
- IC50 ([2]; read-out: MES SA DX, IC50): 4.63 nM
- IC50 [2, 5]: 4.63 nM
- IC50 ([3]; read-out: HEK 293T, IC50): 0.059 nM
- IC50 [3, 6]: 0.059 nM

SMILES: CC(=O)O[C@H](CC(C(C)C)N(C)C(=O)[C@@H](NC(=O)[C@H]1CCCCN1C)C(C)C)c1nc(C(=O)NC(Cc2ccccc2)CC(C)C(=O)O)c(CCO)s1 (stereo in doubt) [Tb113, (2R,4S)-4-[({2-[(1R,3S)-1-Acetoxy-4-methyl-3-{methyl[(2S)-3-methyl-2-{[(1-methylpiperidin-2-yl)-carbonyl]amino}butanoyl]amino}pentyl]-5-(2-hydroxyethyl)-1,3-thiazol-4-yl}carbonyl)amino]-2-methyl-5-phenylpentanoic acid]
- IC50 [1, 4]: 5.79 nM
- IC50 [2, 5]: > 400 nM
- IC50 [3, 6]: 0.315 nM

SMILES: CC(=O)O[C@H](C[C@H](C(C)C)N(C)C(=O)[C@@H](NC(=O)[C@H]1CCCCN1C)C(C)C)c1cccc(C(=O)N[C@@H](Cc2ccccc2)C[C@H](C)C(=O)O)n1 [Tb65, (2S,4R)-4-[({6-[(1R,3R)-1-Acetoxy-4-methyl-3-{methyl[(2S)-3-methyl-2-({[(2R)-1-methylpiperidin-2-yl]carbonyl}amino)butanoyl]amino}pentyl]pyridin-2-yl}carbonyl)amino]-2-methyl-5-phenylpentanoic acid]
- IC50 [1, 4]: 2.44 nM
- IC50 [2, 5]: 279 nM
- IC50 [3, 6]: 2.04 nM

SMILES: CCOC(=O)[C@@H](C)C[C@H](Cc1ccccc1)NC(=O)c1csc([C@@H](C[C@H](C(C)C)N(C)C(=O)[C@@H](NC(=O)[C@H]2C[C@H](O)CCN2C)C(C)C)OC(C)=O)n1 [Tb76, Ethyl (2S,4R)-4-[({2-[(1R,3R)-1-acetoxy-3-{[(2S)-2-({[(2R,4R)-4-hydroxy-1-methylpiperidin-2-yl]-carbonyl}amino)-3-methylbutanoyl](methyl)amino}-4-methylpentyl]-1,3-thiazol-4-yl}carbonyl)-amino]-2-methyl-5-phenylpentanoate]
- IC50 [1, 4]: 4.88 nM
- IC50 [2, 5]: > 2500 nM
- IC50 [3, 6]: 1.37 nM

SMILES: CC(=O)O[C@H](C[C@H](C(C)C)N(C)C(=O)[C@@H](NC(=O)[C@H]1CCCCN1C)C(C)C)c1nc(C(=O)NC(Cc2ccccc2)C[C@H](C)C(=O)O)c(CCOCc2ccccc2)s1 (stereo in doubt) [Tb111, (2S,4S)-4-[({2-[(1R,3R)-1-acetoxy-4-methyl-3-{methyl[(2S)-3-methyl-2-{[(1-methylpiperidin-2-yl)carbonyl]amino}butanoyl]amino}pentyl]-5-[2-(benzyloxy)ethyl]-1,3-thiazol-4-yl}carbonyl)-amino]-2-methyl-5-phenylpentanoic acid]
- IC50 ([1]; read-out: MES SA, IC50): 0.04 nM
- IC50 [1, 4]: 0.04 nM
- cytotoxicities against the marked drug resistant cancer cell line MES SA DX (in words) [2]: relatively potent (low nanomolar)
- IC50 ([2]; read-out: MES SA DX, IC50): 1.54 nM
- IC50 [2, 5]: 1.54 nM
- IC50 ([3]; read-out: HEK 293T, IC50): 0.006 nM
- IC50 [3, 6]: 0.006 nM

SMILES: COC(=O)[C@@H](C)C[C@H](Cc1ccccc1)NC(=O)c1csc([C@H](O)C[C@H](C(C)C)N(C)C(=O)[C@@H](NC(=O)[C@H]2CCCCN2C)C(C(F)(F)F)C(F)(F)F)n1 [Tb80, Methyl (2S,4R)-4-[({2-[(1R,3R)-1-hydroxy-4-methyl-3-{methyl[(2S)-4,4,4-trifluoro-2-({[(2R)-1-methylpiperidin-2-yl]carbonyl}amino)-3-(trifluoromethyl)butanoyl]amino}pentyl]-1,3-thiazol-4-yl}-carbonyl)amino]-2-methyl-5-phenylpentanoate]
- IC50 [1, 4]: > 1000 nM
- IC50 [2, 5]: > 1000 nM
- IC50 [3, 6]: > 1000 nM

From patent US11274124B2, “Tubulysin analogues as anticancer agents and payloads for antibody-drug conjugates and methods of treatment therewith” (William Marsh Rice University, priority 2017, dated 2022)
